The structures appear in SMILES notation.

One test is filed under the species Rattus norvegicus. The test can be described thus: Ratio of binding affinity towards Sigma opioid receptor type 1 versus Sigma opioid receptor type 2.
Test [1] addresses Sigma non-opioid intracellular receptor 1 (Cavia porcellus). The test can be described thus: Ability to displace [3H](+)-pentazocine from Sigma opioid receptor type 1 of guinea pig brain.
Test [2] has as its target Sigma-2 receptor (Rattus norvegicus). Put plainly: Ability to displace [3H]ditolylguanidine in the presence of 100 nM (+)-pentazocine from Sigma opioid receptor type 2 of rat liver.

For `CCOC(=O)CC1OC2(CCN(Cc3ccccc3)CC2)c2ccccc21` (stereo not drawn), the Selectivity in the test listed under Rattus norvegicus was determined as 449.

As for `OCC1Cc2ccccc2C2(CCN(Cc3ccccc3)CC2)O1` (stereo not drawn), the Selectivity in the test listed under Rattus norvegicus is 292. The Ki is a dissociation constant, usually derived from enzyme kinetics or from competition with a known ligand. On to `OC1Cc2ccccc2C2(CCN(Cc3ccccc3)CC2)O1` (stereo not drawn), for which the inhibition constant (Ki) in test [1] is 2.17 nM; in test [2] it was 513 nM. Besides, the Selectivity in the test listed under Rattus norvegicus was found to be 236. As to `CCOC(=O)CC1Cc2ccccc2C2(CCN(Cc3ccccc3)CC2)O1` (stereo not drawn), the Selectivity in the test listed under Rattus norvegicus came to 124. Still for that read-out and setting: next, `CCOC(=O)C1OC2(CCN(Cc3ccccc3)CC2)c2ccccc21` (stereo not drawn): 796; `CNCCC1Cc2ccccc2C2(CCN(Cc3ccccc3)CC2)O1` (stereo not drawn): 29.

As to `N#CCC1OC2(CCN(Cc3ccccc3)CC2)c2ccccc21` (stereo not drawn), the Selectivity in the test filed under Rattus norvegicus amounted to 768. Turning to `CCOC(=O)C1Cc2ccccc2C2(CCN(Cc3ccccc3)CC2)O1` (stereo not drawn), in the test listed under Rattus norvegicus, the Selectivity was found to be 1130. The same measure, in the same setting: next, `O=CCC1Cc2ccccc2C2(CCN(Cc3ccccc3)CC2)O1` (stereo not drawn): 180. Still for that read-out and setting: the result for `OCCC1Cc2ccccc2C2(CCN(Cc3ccccc3)CC2)O1` (stereo not drawn) reads 668; that for `N#CCC1Cc2ccccc2C2(CCN(Cc3ccccc3)CC2)O1` (stereo not drawn), 295.

Source of the values: ChEMBL document CHEMBL1135979, “Novel sigma receptor ligands. Part 2. SAR of spiro[[2]benzopyran-1,4'-piperidines] and spiro[[2]benzofuran-1,4'-piperidines] with carbon substituents in position 3” (J Med Chem, 2002).
